Test results as given in paper PMC5942357 (European Journal of Clinical Pharmacology, 2018).

Experiments:
[1] = IPF patients treated; cited from earlier work
[2] = tested on: αvβ6 integrin-mediated TGFβ activation; conditions: in vitro experiments; cited from earlier work
αvβ6 integrin = conditions: cited from earlier work
[3] = Pulmonary function tests (DLCO, FEV1, FVC), change from baseline; assay type: in vivo, human
Procedure: Participants were under continuous medical supervision during each admission period (up to 48 h post-dose), and safety assessments were made at regular intervals throughout each period and until the end of follow-up. Assessment of safety was conducted by monitoring AEs, clinical laboratory tests (haematology, clinical chemistry and urinalysis), vital signs (including pulse oximetry), 12-lead ECGs, telemetry, physical examinations and pulmonary function tests (forced expiratory volume in 1 s [FEV1], FVC, diffusing capacity of the lung for carbon monoxide).

For `Cc1ccc(=O)n(-c2ccccc2)c1` [pirfenidone], the “Discontinuation due to adverse events (AEs), patients” value [1] is given as “approximately 30%” and the “Effects on αvβ6 integrin-mediated TGFβ activation” value [2] is given as “limited effects”.

In the case of `Cc1cc(C)n(-c2cccc([C@H](CC(=O)O)CN3CC[C@@H](CCc4ccc5c(n4)NCCC5)C3)c2)n1` [GSK3008348], the “Binding affinity for the αvβ6 integrin” value (αvβ6 integrin) is given as “high affinity”, the “DLCO, mean change from baseline to 24 h post dose” value (“DLCO, mean change from baseline” for short) ([3]; 1 mcg, N=6) is given as -0.153 L and the “FEV1, mean change from baseline to 24 h post dose” value (“FEV1, mean change from baseline” for short) ([3]; 1 mcg, N=6) is given as -0.043 L. For the same compound, the “FVC, mean change from baseline to 24 h post dose” value (“FVC, mean change from baseline” for short) ([3]; 1 mcg, N=6) was -0.06 L, the “DLCO, mean change from baseline” value ([3]; 3 mcg, N=6) was 0.938 L and the “FEV1, mean change from baseline” value ([3]; 3 mcg, N=6) was -0.007 L. The “FVC, mean change from baseline” value ([3]; 3 mcg, N=6) was 0.125 L, the “DLCO, mean change from baseline” value ([3]; 10 mcg, N=6) was 0.113 L and the “FEV1, mean change from baseline” value ([3]; 10 mcg, N=6) was -0.053 L. For the same compound, the “FVC, mean change from baseline” value ([3]; 10 mcg, N=6) was -0.105 L, the “DLCO, mean change from baseline” value ([3]; 30 mcg, N=6) was -0.168 L and the “FEV1, mean change from baseline” value ([3]; 30 mcg, N=6) was 0.085 L. The “FVC, mean change from baseline” value ([3]; 30 mcg, N=6) was 0.033 L, the “DLCO, mean change from baseline” value ([3]; 100 mcg, N=6) was -0.862 L and the “FEV1, mean change from baseline” value ([3]; 100 mcg, N=6) was 0.023 L. For the same compound, the “FVC, mean change from baseline” value ([3]; 100 mcg, N=6) was 0.12 L, the “DLCO, mean change from baseline” value ([3]; 300 mcg, N=6) was 0.562 L and the “FEV1, mean change from baseline” value ([3]; 300 mcg, N=6) was -0.072 L. The “FVC, mean change from baseline” value ([3]; 300 mcg, N=6) was -0.078 L, the “DLCO, mean change from baseline” value ([3]; 1000 mcg, N=12) was -0.293 L and the “FEV1, mean change from baseline” value ([3]; 1000 mcg, N=12) was -0.027 L. The “FVC, mean change from baseline” value ([3]; 1000 mcg, N=12) was -0.014 L, the “DLCO, mean change from baseline” value ([3]; 3000 mcg, N=11) was 0.547 L and the “FEV1, mean change from baseline” value ([3]; 3000 mcg, N=11) was -0.025 L. For the same compound, the “FVC, mean change from baseline” value ([3]; 3000 mcg, N=11) was -0.094 L and the “Individual change from baseline in FEV1 and FVC over time between treatment groups” value ([3]; all dose levels) was “did not show clinically significant differences”.

In the case of `COC(=O)c1ccc2c(c1)NC(=O)/C2=C(\Nc1ccc(N(C)C(=O)CN2CCN(C)CC2)cc1)c1ccccc1` [nintedanib], the “Discontinuation due to adverse events (AEs), patients” value [1] is given as about 20% and the “Effects on αvβ6 integrin-mediated TGFβ activation” value [2] is given as “limited effects”.
